In assay [1] the test system is HeLa cells. Briefly: Cell death assay with HeLa cells, qualitative (phase contrast microscopy), TNF-α/CHX challenge. The assay is classed as cell-based. To be noted: for cytoprotection of HeLa cells from apoptotic effects of TNF-α and CHX (microscopy): 24 hour incubation. The method, then:
The cytoprotective properties of Cbz-Val-Asp(OMe)CH2F were tested using HeLa cells challenged with tumor necrosis factor-alpha (TNF-α) and cycloheximide (CHX). This is a well-characterized cell culture model of apoptosis which is commonly used to analyze anti-apoptotic agents. Two types of experiments were performed: a qualitative assessment of cell death by visualization of the cells using phase contrast microscopy; and a quantitative assessment of cell death using the fluorescent dye calcein AM.
For photomicroscopy, HeLa cells are seeded in 12-well multidishes at a density of 100,000 cells per well in Minimal Essential Medium containing 2 mM glutamine and 10% fetal bovine serum. 24 hours later the plating medium is removed and fresh medium is added containing the cytoprotective test compound at various concentrations. The cells are pre-incubated with test compound for 2 hours at 37° C. in a CO2 incubator and then TNF-α and CHX are added at final concentrations of 25 ng/mL and 30 μg/mL, respectively. After a 24 hour incubation period, the cells are examined visually for evidence of cell death based on cell shape and degree of adherence. Cells are considered dead if they have become rounded up and phase bright and have detached from the substratum. Cells are considered alive if they have retained their normal morphology and remain attached to the substratum.
All of these compounds are the methyl ester derivatives. […] At 50 μM, the related peptides BOC-Asp(OMe)-CH2F (FIG. 1C) and Cbz-Glu(OMe)-Val-Asp(OMe)-CH2F (FIG. 1E) are also protective.

Assay [2] has as its system PARP cleavage in Jurkat cells. In words: Inhibition of PARP cleavage in antiFas-treated Jurkat cells (Example 22, Western blot). It counts as cell-based, human. To be noted: for inhibition of PARP cleavage: antiFas-treated Jurkat cells. An excerpt: The cleavage of the enzyme poly(ADP)ribose polymerase (PARP) appears to occur in all cells in which the caspase proteolytic cascade is activated. For this reason, PARP cleavage is widely used as a biochemical marker for caspase-mediated apoptosis. The ability of a cytoprotective drug to block PARP cleavage is considered to be an indication of the drug's ability to inhibit the caspase proteolytic cascade and, in particular, CPP32 (caspase-3), the main PARP protease. The ability of Cbz-Val-Asp(OMe)-CH2F to inhibit PARP cleavage was examined during Fas-mediated apoptosis of Jurkat cells, a human T-cell line. This cell culture model of apoptosis is well-characterized and is known to involve activation of at least two caspases, caspase-3 (CPP32) and caspase-8 (FLICE/MACH).
For PARP cleavage assays, Jurkat cells were seeded at a density of 500,000 cells per well in six-well multidishes in RPMI 1640 medium containing 10% FBS. The cells were pre-incubated with Cbz-Val-Asp(OMe)-CH2F or other test compounds for 2 hours at 37° C. in a CO2 incubator and then a monoclonal antibody to Fas was added at a final concentration of 500 ng/mL. Incubation at 37° C. in a CO2 incubator was continued for an additional 4 hours. […] An amount of lysate corresponding to 10 to 20 μg of protein was loaded on a 7.5% SDS polyacrylamide gel and electrophoresed for 2 to 2.5 hrs at 25 mA. The protein was then transferred to a PVDF membrane, probed with a rabbit polyclonal antibody to PARP, and visualized using chemiluminescence.
Jurkat cells were pre-incubated with 0.5, 5, or 50 μM of the following compounds: Cbz-Val-Asp(OMe)-CH2F (compound 1); BOC-Asp(OMe)-CH2F (compound 5); Cbz-Asp-α-([2,6-dichlorobenzoyloxy]-methyl ketone) (compound 6), Cbz-Glu(OMe)-Val-Asp(OMe)-CH2F (compound 3), Cbz-Asp(OMe)-Glu(OMe)-Val-Asp(OMe)-CH2F (SEQ ID NO:1) (compound 2), Cbz-Ile-Glu(OMe)-Thr-Asp(OMe)-CH2F (SEQ ID NO:2) (compound 4), or Cbz-Val-Ala-Asp(OMe)-CH2F (compound 7). The cells were then treated with antiFas and processed for Western Blotting.
(In general: In western blotting, separated proteins are transferred to a membrane and probed.)

The next assay concerns the target T1, Caspase-3 (Homo sapiens, UniProt P42574).
T1 sequence (P42574 29-175 limits assumed): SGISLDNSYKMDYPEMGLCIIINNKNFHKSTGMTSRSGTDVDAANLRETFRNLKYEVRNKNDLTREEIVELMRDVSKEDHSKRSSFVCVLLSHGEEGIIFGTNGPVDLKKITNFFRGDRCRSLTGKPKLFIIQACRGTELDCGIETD
Briefly: Caspase-3 activity of the dipeptide inhibitors (Table III). The assay is classed as biochemical.

The subject of assay [3] is PARP cleavage in Jurkat cells. In words: Effect of Z-VD-fmk on PARP cleavage in antiFas-treated Jurkat cells (Example 24). It counts as cell-based, human. On the procedure: Poly(ADP)ribose polymerase (PARP) was one of the first caspase-3 substrates identified and the cleavage of PARP is still considered to be a near-universal marker for caspase-3 activation and caspase-mediated apoptosis. The ability of an anti-apoptotic compound to block PARP cleavage is therefore a useful indicator of its ability to inhibit apoptosis. The potency of Z-VD-fmk in a PARP cleavage assay was tested using antiFas-treated Jurkat cells. 2×10^6 Jurkat cells were seeded in each well of a 6-well dish and pre-incubated with test compounds for 30 minutes. The cells were then challenged with 500 ng/mL of an agonistic antiFas antibody or PBS for 4 hours. The cells were then harvested, pelleted gently, washed two times with PBS and lysed in RIPA buffer. Aliquots of the lysate were analyzed by SDS-PAGE and the proteins were transferred to PVDF membranes for Western blotting. The primary antibody was a polyclonal antiPARP serum which cross-reacts with both full-length PARP and the caspase-3-generated cleavage product.

Assay [4] deals with HeLa cells. In words: Effect of Z-VD-fmk on TNF-α-induced cell death in HeLa cells (calcein AM, Example 25). The settings on record: TNF-α 25 ng/mL + CHX 30 μg/mL, zero to 500 nM tested. It counts as cell-based. On the procedure: Tumor necrosis factor alpha (TNF-α) can trigger apoptosis in a number of cell types by initiating the caspase cascade and its apoptosis inducing activity can be inhibited by peptide-based caspase inhibitors. However, high concentrations of the inhibitors (50 μM or greater) is required to have good anti-apoptotic effect. HeLa cells, a cell line commonly employed in TNF-α cell death studies, was used here to determine the anti-apoptotic potency of Z-VD-fmk.
HeLa cells were seeded in 48-well multidishes at a density of 50,000 cells per well 24 hours before treatment. They were then pre-incubated with varying concentrations of Z-VD-fmk for 2 hours and challenged with TNF-α (25 ng/mL) and cycloheximide (CHX; 30 μg/mL). The cultures were incubated for an additional 24 hours and dead cells were removed by two washes with PBS. The density of surviving cells was then measured by incubating each culture for 45 minutes with calcein AM, a profluorescent dye which is taken up by living cells and converted to a fluorescent product. The resulting data were expressed as % control values (control values were cells incubated with cycloheximide but without TNF-α).
Z-VD-fmk provided good cytoprotection at concentrations approaching 100 nM.

The text below walks through data of patent publication US6949516B2, “Dipeptide apoptosis inhibitors and the use thereof” (Cytovia, Inc., priority 1997, dated 2005).

As to `COC(=O)CC(NC(=O)C(NC(=O)OCc1ccccc1)C(C)C)C(=O)CF` (stereo not drawn) [Cbz-Val-Asp(OMe)-CH2F, Z-Val-Asp-fmk Methyl Ester], the entries for the “cytoprotection of HeLa cells from apoptotic effects of TNF-α and CHX (microscopy)” value with HeLa cells [1] (0.5 μM), in the assay with HeLa cells [1] (5 μM) and in the assay on HeLa cells [1] (50 μM) were “still an effective cytoprotectant”, “surprisingly strong cytoprotective action” and “completely protects”, respectively. Besides, the “protective concentration, fold lower than other putative anti-apoptotic agents” value in the assay with HeLa cells [1] (HeLa cells, TNF-α/CHX-induced apoptosis) is recorded as 10 to 100 fold. Besides, the “inhibition of PARP cleavage” value in assay [2] (0.5 μM) is “significant inhibition”; in assay [2] (5 μM), “completely inhibited”; in assay [2] (50 μM) it was “completely inhibited”. Further, the “concentration blocking the caspase proteolytic cascade in intact cells, fold lower than other known caspase inhibitors” value in assay [2] (Jurkat cells) is listed as “at least 10 fold”.
By IC50 is commonly meant the concentration that inhibits the measured activity by half. Regarding `CC(C)[C@H](NC(=O)OCc1ccccc1)C(=O)NC(CC(=O)O)C(=O)CF` (stereo partly drawn) [Cbz-Val-Asp-CH2F, Z-Val-Asp-fmk], the IC50 at Caspase-3 is 40 nM; in assay [3] (antiFas-treated Jurkat cells, read-out: IC50, inhibition of PARP cleavage (whole-cell apoptosis model)), less than 50 nM. The “inhibition of PARP cleavage” value in assay [3] (50 nM, antiFas-treated Jurkat cells) is listed as “still retains much of its inhibitory activity”; in assay [3] (250 nM, antiFas-treated Jurkat cells), “completely inhibits”; in assay [3] (500 nM, antiFas-treated Jurkat cells), “completely inhibits”. Also, the “potency as inhibitor of PARP cleavage in intact cells, fold relative to Z-VAD-fmk” value in assay [3] (Jurkat cells) was “at least 10 fold”. In the assay on HeLa cells [4], the “concentration providing good cytoprotection against TNF-α-induced cell death” value is listed as roughly 100 nM.
